Where two headings read alike, the source gives them in different places.
Tests used:
ΔMTHFD2 cells = details: addition of formate to ΔMTHFD2 cells (from HEK293T)
Description: AICAR in wild type HEK293T cells and cells lacking a key enzyme producing formyl-THF, MTHFD2, was measured by LC-MS. See e.g., Fan et al., Nature 510: 298-302, 2014. […] The ΔMTHFD2 cells lacking MTHFD2 were produced from HEK293T cells by CRISPR (clustered regularly interspaced short palindromic repeat)-mediated knockout.

HEK293T cells [1] = assay: U13C tracer labeling of the one-carbon unit pool; format: cell-based; details: 48 h, ADP purine ring and dTTP methyl labeling
Description: In order to determine contribution of the single carbon, cells were cultured with media containing [U ^13C] serine for 48 h, washed three times with cold PBS to remove extracellular serine, extracted, and the intracellular labeling pattern analyzed by LC-MS for ATP (representing purines; there is no labeling of ribose-phosphate based on LC-MS measurements), glycine and serine. See e.g., Fan et al., Nature 510: 298-302, 2014.
Purine ring labeling is indicative of formyl-THF labeling.

tumor growth = details: patients; current best therapy plus glycine supplementation therapy
Description: Individuals providing informed consent to enter the trial are randomized to the current best therapy or current best therapy plus glycine supplementation therapy arms.
The glycine supplementation therapy arm involves providing increased total intake of glycine and/or decreased total intake of serine so as to achieve an increased ratio of glycine to serine intake. The clinical course of patients enrolled in the trial is monitored with respect to endpoints selected based on the disease state, e.g., for stage IV lung cancer, changes in tumor volume, progression-free survival, and overall survival, as well as side effects of the treatment regimen.

HEK293T cells [2] = details: 24 h, +5 mM glycine, DMEM with or without serine
Description: (§2) Metabolites were then harvested by quickly aspirating media, washing with PBS buffer, and immediately adding −80° C. 80:20 methanol: water extraction solution at −80° C. Following quenching, the tissue culture dish was incubated at −80° C. for 15 min, and then the cells were scraped from the plate. After centrifuging the cell suspension at 5300×g for 10 min, the supernatant was kept and the debris was re-extracted with −80° C. 80:20 methanol:water. The resulting suspension was centrifuged again and the supernatant was combined with first supernatant. […] LC separation was by reversed-phase ion-pairing chromatography with tributylamine as the ion-pairing agent. MS analysis was on a stand-alone orbitrap mass analyzer (Thermo Scientific) operated in negative ion mode and scanning from m/z 85-1000 at 1 Hz at 100,000 resolution. Data were analyzed using the MAVEN software suite. All observed LC-MS peaks were in analyzed, including those of roughly 100 known water-soluble metabolites.

HEK293T cells [3] = tested on: HEK293T cells
Description: To measure cellular folates, media was removed from HEK293T cells, and replaced with 50:50 methanol:water with 25 mM ammonium acetate and 1% sodium ascorbate, at −20° C. […] After 15 min on ice, the cells were scraped from the dish to further enhance extraction, and the cell-liquid mixture was centrifuged to remove particulate matter. The particulate matter was re-extracted with the same solvent for 15 minutes, and the 2 extracts were combined. The resulting combined extract was treated with rat serum to hydrolyze the polyglutamate chains of folate polyglutamates. […] The resulting mixture was passed through a phenyl solid phase extraction column which removes proteins, highly soluble metabolites, salts and further concentrates the folate species, which were then analyzed by in high resolution LC-MS.

HEK293 cell = details: 3 days
Text: (§1) It is hypothesized that high glycine is driving the backwards SHMT reaction while also impairing the forward reaction by product inhibition.

HEK293 cells = details: DMEM lacking serine, 3 days
Text: as §1

HCT116 cells = details: HCT116 xenograft in CD-1-Foxn1nu female mice; high (2×-5× normal) glycine diets
Description: Approximately 3×10^6 HCT116 cells (or other tumor-forming transformed cells) are injected on the flank of approximately 8 week CD-1-Foxn1nu female mice (Charles River) or similar rodents. To compare cell lines or gather data more rapidly, different cell lines can be ejected on the 2 flanks (right and left) of each mouse. […] Numbers of mice are selected in order to obtain appropriate statistical power, with 6-20 mice per group typical.

HEK293T cells [4] = details: absence of exogenous serine, 0.4 mM glycine, or addition of 2 mM or 5 mM glycine
Description: Cell growth was measured in an incubator containing 5% CO2 at 37° C.

HEK293T cells [5] = details: 24 h, addition of glycine (5 mM)
Description: as §2
HEK293T cells were cultured in the conditions described in Example 2. In addition to measuring metabolite concentrations, important metabolite ratios, e.g., NADH/NAD+, NADPH/NADP+, ATP/ADP, were calculated.

NADPH/NADP+ ratio = assay: Cellular effect of anti-folate therapy on the NADPH/NADP+ ratio; format: cell-based; details: methotrexate 500 nM

## O=CO [formate]
ΔMTHFD2 cells
  AICAR accumulation: eliminates the AICAR accumulation

## NCC(=O)O [glycine]
HEK293T cells [1]
  contribution to the cellular one-carbon unit pool: does not contribute one carbon units
Tumor growth
  tumor growth and tumor progression: will reduce tumor growth and slow tumor progression
HEK293T cells [2]
  intracellular serine levels: enhanced
HEK293T cells [3]; glycine addition
  AICAR: rise
HEK293T cells [3]; presence of glycine when serine is absent, 1× and 10× relative to standard DMEM
  Formyl-THF and methyl-THF levels: decrease
HEK293 cell; DMEM lacking serine, 1× glycine
  decrease in final cell number relative to growth in complete DMEM: approximately 30%
HEK293 cell; serine removal and addition of 12× glycine
  decrease in final cell number relative to growth in complete DMEM: approximately 70%
HEK293 cells; 1× glycine, complete DMEM approximately 1
  Relative NADPH/NADP+: approximately 0.7
HEK293 cells; addition of 12× glycine
  Relative NADPH/NADP+: approximately 0.45
HCT116 cells
  tumor growth and tumor progression: will reduce tumor growth and slow tumor progression
HEK293T cells [4]
  transformed cell growth: inhibits transformed cell growth
HEK293T cells [5]
  ATP/ADP ratio: significantly decreased
  decrease in the NADPH/NADP+ ratio: approximately 2 fold

## CN(Cc1cnc2nc(N)nc(N)c2n1)c1ccc(C(=O)N[C@@H](CCC(=O)O)C(=O)O)cc1 [methotrexate]
NADPH/NADP+ ratio
  NADPH/NADP+ ratio: decrease

## N[C@@H](CO)C(=O)O [serine, reference compound]
HEK293T cells [1]
  contribution to the cellular one-carbon unit pool: contributes to the cellular one-carbon unit pool

— US11147784B2, “Dietary supplements and composition for treating cancer” (The Trustees of Princeton University, priority 2013, dated 2021)
